From ChEMBL document CHEMBL1269006, “Synthetic human serum albumin Sudlow I binding site mimics” (J Med Chem, 2010)

Assay: Displacement of [3H](S)-warfarin from methacrylic acid-ethylene dimethacrylate copolymer

| SMILES | EC50 [µM] | logEC50 |
| --- | --- | --- |
| CC(=O)CC(c1ccc(Cl)cc1)c1c(O)c2ccccc2oc1=O (stereo unspecified) [COUMACHLOR] | 165 | -3.78 |
| O=c1ccc2ccccc2o1 [COUMARIN] | 1290 | -2.89 |
| CC(=O)CC(c1ccccc1)c1c(O)c2ccccc2oc1=O (stereo unspecified) [WARFARIN] | 89.6 | -4.05 |
